Here are results for 13 compounds from US10336702B2, “Pharmaceutically active compounds” (BERGENBIO ASA, priority 2015, dated 2019).

The target in one assay is T1, Akt1 (Homo sapiens, UniProt P31749).
T1 construct: unspecified tag, removed (detagged) (cleaved yes); purchased SignalChem and Proteros (Akt1); Merck Millipore (PDK1) 14-452 (PDK1); none given for Akt1
The assay can be described thus: Akt activation assay (PDK1-mediated activation, LANCE Ultra crosstide TR-FRET), Akt1. It is filed as biochemical. Conditions: read-out: Biological Assay 1 IC50 (nM) Akt1. The method in brief: (§1)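 Compound + Akt preinc.; start w/ PDK1 5 nM, DOPS/DOPC 5.5 μM each, PIP3 0.55 μM, ATP 100 μM, Ulight-crosstide 100 nM; HEPES pH 7.5, 10 mM MgCl2, 2 mM DTT, 1% DMSO; 30 min; EDTA stop; Eu-Ab TR-FRET; 4-PL IC50.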
(Time-resolved FRET reads energy transfer from a long-lived donor to a nearby acceptor.)

A further assay concerns the target T2, Akt2 (Homo sapiens, UniProt P31751).
T2 construct: unspecified tag, removed (detagged) (cleaved yes); purchased SignalChem and Proteros (Akt2); Merck Millipore (PDK1) 14-452 (PDK1); none given for Akt2
The assay can be described thus: Akt activation assay (PDK1-mediated activation, LANCE Ultra crosstide TR-FRET), Akt2. Format: biochemical. The conditions noted are these: read-out: Biological Assay 1 IC50 (nM) Akt2. The method in brief: as §1

Another assay has as its target T3, Akt3 (Homo sapiens, UniProt Q9Y243).
T3 construct: unspecified tag, removed (detagged) (cleaved yes); purchased SignalChem and Proteros (Akt3); Merck Millipore (PDK1) 14-452 (PDK1); none given for Akt3
Nature of the assay: Akt activation assay (PDK1-mediated activation, LANCE Ultra crosstide TR-FRET), Akt3. It is filed as biochemical. The conditions noted are these: read-out: Biological Assay 1 IC50 (nM) Akt3. A digest of the protocol:
as §1

For another assay, the target named is T4, p-Akt1 in LNCaP cells (Homo sapiens, UniProt P31749).
T4 construct: SureFire assays to detect cellular p-Akt1, p-Akt2 and p-Akt3 levels in WM115 cells (Akt2/3) and LNCaP cells (Akt1); endogenous in cells; host or cells: LNCaP (ECACC 89110211)
T4 sequence (P31749 whole entry): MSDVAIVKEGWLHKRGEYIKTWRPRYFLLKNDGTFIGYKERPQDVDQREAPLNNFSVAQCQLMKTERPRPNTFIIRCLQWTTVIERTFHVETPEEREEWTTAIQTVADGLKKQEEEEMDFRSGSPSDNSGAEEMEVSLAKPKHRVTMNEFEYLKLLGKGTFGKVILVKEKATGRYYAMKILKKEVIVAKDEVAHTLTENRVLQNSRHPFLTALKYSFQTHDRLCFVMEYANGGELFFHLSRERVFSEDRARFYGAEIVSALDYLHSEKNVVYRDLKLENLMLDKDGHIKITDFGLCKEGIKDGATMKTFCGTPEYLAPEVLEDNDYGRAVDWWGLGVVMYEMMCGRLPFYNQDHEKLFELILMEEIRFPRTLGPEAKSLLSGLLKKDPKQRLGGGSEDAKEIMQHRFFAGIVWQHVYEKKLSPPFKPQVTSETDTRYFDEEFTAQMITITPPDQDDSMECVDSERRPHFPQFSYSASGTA
The assay can be described thus: Phospho-Akt cellular SureFire assay, p-Akt1 in LNCaP cells. Format: cell-based. The conditions noted are these: read-out: Biological Assay 2 IC50 (nM) Akt1 LNCaP. The method in brief: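 LNCaP cells, 5×10^4/well, seeded overnight, switched to 0.1% FBS medium without insulin stimulation, then compound for 15 min at 37 °C (0.3% DMSO). Lysate p-Akt1 (pThr308) by AlphaScreen SureFire, two 2 h incubations at room temperature; IC50 by 4-parameter fit.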

The next assay deals with T5, p-Akt2 in WM115 cells (Homo sapiens, UniProt P31751).
T5 construct: SureFire assays to detect cellular p-Akt1, p-Akt2 and p-Akt3 levels in WM115 cells (Akt2/3) and LNCaP cells (Akt1); endogenous in cells; host or cells: WM115 (ECACC 91061232), insulin-stimulated
T5 sequence (P31751 whole entry): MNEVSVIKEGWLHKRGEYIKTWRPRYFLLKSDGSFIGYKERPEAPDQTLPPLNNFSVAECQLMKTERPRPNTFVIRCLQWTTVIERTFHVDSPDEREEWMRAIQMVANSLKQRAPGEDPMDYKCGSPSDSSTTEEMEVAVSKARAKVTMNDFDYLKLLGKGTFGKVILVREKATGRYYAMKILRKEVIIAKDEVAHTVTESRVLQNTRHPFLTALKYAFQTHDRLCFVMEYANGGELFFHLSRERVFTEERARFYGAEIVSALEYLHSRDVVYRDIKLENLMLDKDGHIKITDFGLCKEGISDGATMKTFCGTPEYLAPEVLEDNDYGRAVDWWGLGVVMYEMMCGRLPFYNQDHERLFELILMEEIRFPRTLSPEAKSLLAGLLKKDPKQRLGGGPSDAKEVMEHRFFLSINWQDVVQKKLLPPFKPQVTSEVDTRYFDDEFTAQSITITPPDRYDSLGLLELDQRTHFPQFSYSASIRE
Nature of the assay: Phospho-Akt cellular SureFire assay, p-Akt2 in WM115 cells. Format: cell-based. Conditions: insulin stimulated, read-out: Biological Assay 2 IC50 (nM) Akt2 WM115. A digest of the protocol: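 WM115 cells in 0.1% FBS medium stimulated 10 min with 100 nM insulin, then exposed to compound for 15 min at 37° C (0.3% DMSO final). Lysates assayed by AlphaScreen with anti-(pThr308)Akt and isoform-specific total Akt2 antibodies; IC50 from 4-parameter fit.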

The next assay addresses T6, p-Akt3 in WM115 cells (Homo sapiens, UniProt Q9Y243).
T6 construct: SureFire assays to detect cellular p-Akt1, p-Akt2 and p-Akt3 levels in WM115 cells (Akt2/3) and LNCaP cells (Akt1); endogenous in cells; host or cells: WM115 (ECACC 91061232), insulin-stimulated
Nature of the assay: Phospho-Akt cellular SureFire assay, p-Akt3 in WM115 cells. It is filed as cell-based. The conditions noted are these: insulin stimulated, read-out: Biological Assay 2 IC50 (nM) Akt3 WM115. The method in brief:
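WM115 cells were serum-reduced to 0.1% FBS, stimulated with 100 nM insulin for 10 min, then exposed to compound (0.3% DMSO) for 15 min at 37 °C. Lysates were assayed for Thr308-phosphorylated Akt3 by AlphaScreen SureFire using an isoform-specific total Akt3 capture antibody. IC50 was derived from a 4-parameter fit.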

SMILES strings stand for the structures.

T2 sequence (P31751 whole entry): as above
T3 sequence (Q9Y243 whole entry): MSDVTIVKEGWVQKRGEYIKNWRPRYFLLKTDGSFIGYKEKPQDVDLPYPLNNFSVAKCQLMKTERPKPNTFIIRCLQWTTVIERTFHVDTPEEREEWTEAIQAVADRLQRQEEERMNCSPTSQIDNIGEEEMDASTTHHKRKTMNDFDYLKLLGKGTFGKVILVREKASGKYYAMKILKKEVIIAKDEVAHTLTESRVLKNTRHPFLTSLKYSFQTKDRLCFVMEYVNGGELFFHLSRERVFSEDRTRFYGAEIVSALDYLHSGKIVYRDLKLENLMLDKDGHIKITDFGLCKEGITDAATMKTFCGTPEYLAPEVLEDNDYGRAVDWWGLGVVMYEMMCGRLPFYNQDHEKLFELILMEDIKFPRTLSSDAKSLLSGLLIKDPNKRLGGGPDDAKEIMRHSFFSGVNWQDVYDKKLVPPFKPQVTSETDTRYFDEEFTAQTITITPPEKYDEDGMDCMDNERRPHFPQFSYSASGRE
T6 sequence (Q9Y243 whole entry): as above
T1 sequence (P31749 whole entry): as the sequence (P31749 whole entry) above

For the compound `CC(=O)N(C)[C@H]1CC[C@H](CC(=O)Nc2cnc(-c3ccc([C@]4(N)C[C@](C)(O)C4)cc3)c(-c3ccccc3)c2)CC1` [Example 1, N-(6-(4-(trans-1-amino-3-hydroxy-3-methylcyclobutyl)phenyl)-5-phenylpyridin-3-yl)-2-(trans-4-(N-methylacetamido)cyclohexyl)acetamide], the IC50 (usually the concentration that gives 50% inhibition) on Akt1 was 780 nM; at Akt2, 110 nM; on Akt3 it was 15 nM; on p-Akt1 in LNCaP cells, 2700 nM; on p-Akt2 in WM115 cells, 1800 nM; on p-Akt3 in WM115 cells, 30 nM.
As to `CCC(=O)N(C)[C@H]1CC[C@H](CC(=O)Nc2cc(-c3ccccc3)c(-c3ccc([C@]4(N)C[C@](C)(O)C4)cc3)nn2)CC1` [Example 83, N-(trans-4-(2-((6-(4-(trans-1-amino-3-hydroxy-3-methylcyclobutyl)phenyl)-5-phenylpyridazin-3-yl)amino)-2-oxoethyl)cyclohexyl)-N-methylpropionamide], the half-maximal inhibitory concentration (IC50) at Akt1 amounted to 2100 nM; at Akt2 it was 86 nM; at Akt3, 4 nM; at p-Akt1 in LNCaP cells it was 820 nM; on p-Akt2 in WM115 cells, 250 nM; at p-Akt3 in WM115 cells it was 7 nM.
As for `C[C@]1(O)C[C@@](N)(c2ccc(-c3cnc(NC(=O)C[C@H]4CC[C@H](N5CCCC5=O)CC4)cc3-c3ccccc3)cc2)C1` [Example A82, N-(5-(4-(trans-1-amino-3-hydroxy-3-methylcyclobutyl)phenyl)-4-phenylpyridin-2-yl)-2-(trans-4-(2-oxopyrrolidin-1-yl)cyclohexyl)acetamide], the IC50 at Akt1 came to 3100 nM; at Akt2, 91 nM; at Akt3 it was 7 nM; at p-Akt1 in LNCaP cells, 1800 nM; at p-Akt2 in WM115 cells, 460 nM; on p-Akt3 in WM115 cells, 14 nM.
For `CCC(=O)N(C)[C@H]1CC[C@H](CC(=O)Nc2cnc(-c3ccc(C(C)(C)N)cc3)c(-c3ccccc3)c2)CC1` [Example A95, N-(trans-4-(2-((6-(4-(2-aminopropan-2-yl)phenyl)-5-phenylpyridin-3-yl)amino)-2-oxoethyl)cyclohexyl)-N-methylpropionamide], the IC50 at Akt1 is > 30000 nM; at Akt2, 3300 nM; on Akt3 it was 54 nM; on p-Akt1 in LNCaP cells, > 30000 nM; at p-Akt2 in WM115 cells it was 3100 nM; at p-Akt3 in WM115 cells it was 110 nM.
As for `CCC(=O)N(C)[C@H]1CC[C@H](CC(=O)Nc2cc(-c3ccsc3)c(-c3ccc(C4(N)CC4)c(F)c3)nn2)CC1` [Example A101, N-(trans-4-(2-((6-(4-(1-aminocyclopropyl)-3-fluorophenyl)-5-(thiophen-3-yl)pyridazin-3-yl)amino)-2-oxoethyl)cyclohexyl)-N-methylpropionamide], the IC50 at Akt1 was > 30000 nM; at Akt2, 11000 nM; on Akt3, 140 nM; on p-Akt1 in LNCaP cells, > 30000 nM; on p-Akt2 in WM115 cells it was > 30000 nM; at p-Akt3 in WM115 cells, 350 nM.
For the compound `N[C@]1(c2ccc(-c3ncc(NC(=O)C[C@H]4CC[C@H](N5CCOC5=O)CC4)cc3-c3ccccc3)cc2)C[C@@H](F)C1` [Example 78, N-(6-(4-(trans-1-amino-3-fluorocyclobutyl)phenyl)-5-phenylpyridin-3-yl)-2-(trans-4-(2-oxooxazolidin-3-yl)cyclohexyl)acetamide], the IC50 at Akt1 was 5900 nM; at Akt2, 230 nM; on Akt3 it was 14 nM; on p-Akt1 in LNCaP cells, 2000 nM; at p-Akt2 in WM115 cells, 810 nM; at p-Akt3 in WM115 cells, 30 nM.
Take `COC(=O)N(C)[C@H]1CC[C@H](CC(=O)Nc2cc(-c3ccsc3)c(-c3ccc([C@]4(N)C[C@H](F)C4)cc3)nn2)CC1` [Example A70, Methyl (trans-4-(2-((6-(4-(trans-1-amino-3-fluorocyclobutyl)phenyl)-5-(thiophen-3-yl)pyridazin-3-yl)amino)-2-oxoethyl)cyclohexyl)(methyl)carbamate]: the IC50 on Akt1 is > 30000 nM; at Akt2 it was 1100 nM; at Akt3 it was 36 nM; at p-Akt1 in LNCaP cells, > 30000 nM; on p-Akt2 in WM115 cells it was > 28000 nM; at p-Akt3 in WM115 cells it was 960 nM.
Turning to `NC1(c2ccc(-c3cnc(NC(=O)C[C@H]4CC[C@H](N5CCOC5=O)CC4)cc3-c3ccccc3F)cc2)CCC1` [Example A65, N-(5-(4-(1-aminocyclobutyl)phenyl)-4-(2-fluorophenyl)pyridin-2-yl)-2-(trans-4-(2-oxooxazolidin-3-yl)cyclohexyl)acetamide], the IC50 on Akt1 was > 30000 nM; on Akt2, 270 nM; on Akt3 it was 17 nM; at p-Akt1 in LNCaP cells it was > 30000 nM; on p-Akt2 in WM115 cells, 570 nM; at p-Akt3 in WM115 cells, 37 nM.
Consider `CC(=O)N(C)[C@H]1CC[C@H](CC(=O)Nc2cnc(-c3ccc(C4(N)CC(C)(O)C4)c(F)c3)c(-c3ccccc3)c2)CC1` (stereo partly drawn) [Example 124, N-(6-(4-(trans-1-amino-3-hydroxy-3-methylcyclobutyl)-3-fluorophenyl)-5-phenylpyridin-3-yl)-2-(trans-4-(N-methylacetamido)cyclohexyl)acetamide], for which the IC50 at Akt1 is > 21000 nM; on Akt2 it was 880 nM; on Akt3 it was 36 nM; on p-Akt1 in LNCaP cells, 10000 nM; on p-Akt2 in WM115 cells, 2400 nM; on p-Akt3 in WM115 cells, 27 nM.
On to `COC(=O)N(C)[C@H]1CC[C@H](CC(=O)Nc2cnc(-c3ccc(C(C)(C)N)c(F)c3)c(-c3ccccc3)c2)CC1` [Example A28, Methyl (trans-4-(2-((6-(4-(2-aminopropan-2-yl)-3-fluorophenyl)-5-phenylpyridin-3-yl)amino)-2-oxoethyl)cyclohexyl)(methyl)carbamate], for which the IC50 is > 30000 nM on Akt1; > 30000 nM on Akt2; 5900 nM at Akt3; > 30000 nM on p-Akt1 in LNCaP cells; > 20000 nM at p-Akt2 in WM115 cells; 1500 nM at p-Akt3 in WM115 cells.
In the case of `COC(=O)N(C)[C@H]1CC[C@H](CC(=O)Nc2cnc(-c3ccc(C(C)(C)N)cc3)c(-c3ccccc3)c2)CC1` [Example 34, methyl (trans-4-(2-((6-(4-(2-aminopropan-2-yl)phenyl)-5-phenylpyridin-3-yl)amino)-2-oxoethyl)cyclohexyl)(methyl)carbamate], the IC50 was > 29000 nM at Akt1; 6500 nM at Akt2; 380 nM on Akt3; > 15000 nM at p-Akt1 in LNCaP cells; 5200 nM on p-Akt2 in WM115 cells; 150 nM on p-Akt3 in WM115 cells.
Turning to `NC1(c2ccc(-c3ncc(NC(=O)C[C@H]4CC[C@H](N5CCCCC5=O)CC4)cc3-c3ccsc3)cc2)CCC1` [Example A14, N-(6-(4-(1-aminocyclobutyl)phenyl)-5-(thiophen-3-yl)pyridin-3-yl)-2-(trans-4-(2-oxopiperidin-1-yl)cyclohexyl)acetamide], the IC50 was > 30000 nM at Akt1; 1800 nM on Akt2; 170 nM at Akt3; > 30000 nM at p-Akt1 in LNCaP cells; 3200 nM on p-Akt2 in WM115 cells; 80 nM on p-Akt3 in WM115 cells.
Consider `COC1(OC)CCC(CC(=O)Nc2cnc(-c3ccc(C4(N)COC4)cc3)c(-c3ccccc3)c2)CC1` [Example 36, N-(6-(4-(3-aminooxetan-3-yl)phenyl)-5-phenylpyridin-3-yl)-2-(4,4-dimethoxycyclohexyl)acetamide], for which the IC50 at Akt1 is > 30000 nM; at Akt2, > 30000 nM; on Akt3, 100 nM; on p-Akt1 in LNCaP cells it was > 30000 nM; at p-Akt2 in WM115 cells it was 3800 nM; at p-Akt3 in WM115 cells, 230 nM.
